Experiment: molar heat capacity at constant pressure; wn = mass fraction of the nth substance listed
Settings: 101 kPa, Liquid, Small sample (50 mg) DSC

CCn1cc[n+](C)c1.N#C[C-](C#N)C#N [1-ethyl-3-methyl-1H-imidazolium tricyanomethanide] + CCn1cc[n+](C)c1.N#CN=C=[N-]
molar heat capacity at constant pressure [J/K/mol]
Settings | w2 = 0 | w2 = 0.25 | w2 = 0.5 | w2 = 0.75
296.2 K | 357 | 354 | 344 | 335
300.2 K | 360 | 355 | 346 | 338
304.2 K | 362 | 356 | 347 | 339
308.2 K | 364 | 357 | 348 | 340
312.2 K | 366 | 358 | 350 | 342
316.2 K | 367 | 359 | 352 | 343
320.2 K | 369 | 360 | 352 | 344
324.2 K | 370 | 361 | 354 | 345
328.2 K | 372 | 363 | 356 | 347
332.2 K | 374 | 365 | 358 | 349
336.2 K | 377 | 367 | 360 | 352
340.2 K | 379 | 370 | 362 | 354
344.2 K | 382 | 372 | 365 | 356
348.2 K | 384 | 374 | 367 | 359
352.2 K | 387 | 377 | 370 | 362
356.2 K | 390 | 381 | 373 | 365
360.2 K | 393 | 383 | 376 | 368
364.2 K | 396 | 385 | 380 | 371
368.2 K | 399 | 388 | 383 | 374
372.2 K | 403 | 391 | 387 | 378

— the NIST ThermoML archive (doi:10.1016/j.tca.2014.04.026)
